Data set [1] relates to rats. The conditions noted are these: in rats; cited from earlier work.
In data set [2] the test system is rats. Briefly: toxicant exposure of rats; modified proteins isolated from serum (immunoaffinity, 2D gel electrophoresis, LC/MS). The conditions noted are these: for modified proteins found in serum of treated animals, not found in the control group: rat serum, CCl4 0.1 and 1.0 mL/kg or ozone 0.8 and 2.0 ppm, specimens at 0-24 hours, anti-nitrotyrosine, chlorotyrosine, methionine sulfoxide resins, LC/MS. The format is in vivo. The procedure:
Experimental groups consisted of three experimental and two control animals at each dose and specimens were collected at zero, one, two, four, eight, sixteen and twenty-four hours following ozone administration. In another experimental series, CCl4 was administered at a level of 0.1 and 1.0 mL/kg to rats to induce liver damage, and specimens were collected at time points as described above. […] Therefore, these high abundance proteins are preferably eliminated from serum samples prior to further processing.
In this experimental series, the specimens were purified by passing them over affinity resins containing antibodies against whole rat serum proteins and collecting the eluate. This purification methodology was effective in removing a significant amount of the high abundant serum proteins, which typically have a molecular weight in the range of 49-80 kiloDalton. […] Therefore, it was determined that concentration of the sample could be carried out very effectively by a process of molecular weight sieving which retained low molecular weight proteins (typically 50 kiloDalton and below) and excluded high molecular weight proteins. Such sieving was effectively accomplished utilizing a Superdex 75 column with a sample loading volume of 10% of the bed volume. Processes of this type have the advantage of being cheaper and faster than affirity resin based processes.
Once the concentration of high abundance serum proteins was decreased, the tissue proteins were purified from serum by immunoaffinity resins using antibodies to nitrotyrosine, chlorothyosine and methionine sulfoxide. […] Samples of interest were excised from the gel and those with sufficient concentration were analyzed by LC/MS.

“Also recorded” adds a separate entry of the source.

Take `ClC(Cl)(Cl)Cl` [CCl4, carbon tetrachloride]: the organ toxicity result in data set [1] is on record as “known hepatotoxicant”. Besides, in data set [2], the “modified proteins found in serum of treated animals, not found in the control group” value is reported as “three out of the seven peptides from the CCl4 group were associated with mitochondria; also recorded: peroxiredoxin”.

Turning to `O=C1CCC(=O)N1c1cc(Cl)cc(Cl)c1` [NDPS, N-(3,5-dichlorophenyl) succinimide], the organ toxicity entry in data set [1] was “toxic to the kidney”.

For the compound `O=[O+][O-]` [ozone], the organ toxicity result in data set [1] is listed as “toxic to the lungs”. Further, in data set [2], the “modified proteins found in serum of treated animals, not found in the control group” value is on record as “four proteins of interest were found”. The organ damage entry in data set [2] (rats breathing ozone at 0.8 and 2.0 ppm) is “Lung damage was produced”.

The values above are taken from US20070134731A1, “PROTEOMICS BASED METHOD FOR TOXICOLOGY TESTING” (priority 2002, published 2007).
